Consider 2 substances from patent US20180169177A1, “POLYPEPTIDE SPECIFICALLY BINDING TO CD34 MOLECULE AND USE THEREOF” (Guangzhou Yidai Pharmaceutical Co., Ltd., priority 2015, published 2018).

The test system of series [1] is K562 cells. Kind of series: Effect of CD34 binding polypeptide on adhesion of CD34 positive cells. It is filed as cell-based. The conditions noted are these: 2 μg/mL polypeptide, 6 hours, plates of FN, Collagen I and Mareigel, versus control NC, FIG. 4. Here is the method:
Add the polypeptides 17 and 19 into incubating holes to set respective experimental groups (final concentration of polypeptide is 2 μg/mL).

Series [2] addresses T1, CD34 molecules in K562 leukemia cells (Homo sapiens, UniProt P28906).
T1 construct: endogenous in cells; host or cells: K562
T1 sequence (P28906 32-385): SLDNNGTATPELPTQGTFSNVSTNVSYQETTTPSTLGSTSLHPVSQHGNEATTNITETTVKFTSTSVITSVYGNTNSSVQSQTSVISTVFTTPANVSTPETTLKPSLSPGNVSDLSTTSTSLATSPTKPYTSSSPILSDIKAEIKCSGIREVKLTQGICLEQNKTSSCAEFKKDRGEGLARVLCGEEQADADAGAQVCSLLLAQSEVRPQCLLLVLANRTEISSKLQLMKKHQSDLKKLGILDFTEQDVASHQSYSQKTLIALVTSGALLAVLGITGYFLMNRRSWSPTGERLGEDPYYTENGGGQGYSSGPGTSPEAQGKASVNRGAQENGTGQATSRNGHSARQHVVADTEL
Kind of series: Immunofluorescence co-localisation of CD34 binding polypeptide and CD34 antibodies. Conditions: fixed K562 cells, confocal microscope, FIGS. 3a, 3b. Here is the method:
(1) Preparation of cells: incubate K562 cell suspension in an incubator (37° C., 5% CO2). When the cell density reaches 80%, centrifuge and remove the culture solution, wash it once using PBS buffer solution, centrifuge it, take the cell suspension and drop it onto a glass slide coated with polylysine, and use cold acetone to fix for 10 minutes after drying.
(2) Use PBS buffer solution to wash for three times, 5 minutes each time, and then use 5% BSA confining liquid to seal it at room temperature for 1 hour.
(3) Incubation of primary antibodies: drop the primary antibody diluent of CD34 antibodies (AR) onto a slide, incubate it at 4° C. over night. Use PBS buffer solution to wash it for three times, 5 minutes each time.
(4) Incubation of second antibodies and binding to polypeptide: add polypeptides 17 and 19 into diluted anti-rabbit antibodies labeled by Alexa Fluor 561 respectively, drop them onto cover glasses, incubate them at room temperature and keep shielded from light for 1 hour. Use PBS buffer solution to wash for three times, 5 minutes each time.
(5) Use 1 μg/mL DAPI to stain at room temperature and keep shielded from light for 5 minutes, use PBS buffer solution to wash it for three times, 5 minutes each time.
(6) After mounting with anti-fluorescence quenching agent, use laser scanning confocal microscope to observe and photograph.

In series [3] the test system is CD34 negative cells (peripheral blood cells). Kind of series: Magnetic separation, binding to CD34 negative blood cells. Conditions: other blood cells. Format: cell-based. As for the experimental part: Mix polypeptides 17 and 19 adhering to the surfaces of nano-magnetic beads respectively with K562 cells and peripheral blood cells, and incubate them for 1 hour. Use magnetic sorter to sort, and the sorting efficiency of K562 cells is higher than 95%. […] A schematic diagram of the example is shown in FIG. 5, and the specific operation for magnetic separation of the example can be performed according to conventional magnetic techniques in the art.

The test system of series [4] is K562 cells. Description: Effect of CD34 binding polypeptide on proliferation of K562 cells. Format: cell-based. Conditions: 2 μg/ml polypeptide, replenished every 48 hours, counted for 6 days, FIG. 9. As for the experimental part:
(1) Inoculate well-grown K562 cells in a 24-hole plate in cell concentration of 6000/ml/hole; set two experimental groups, wherein polypeptides 17 and 19 (polypeptide concentration is 2 μg/ml) are added into culture solutions respectively; set control groups, wherein polypeptide diluent in the same amount of polypeptide is added into the culture solution.
(2) Count once every 24 hours, replenish CD34 binding polypeptide (polypeptide concentration is 2 μg/ml) once every 48 hours, and the counting lasts for 6 days; repeat the experiment three times;
(3) draw cell growth curves, wherein the Y-axis is indicative of mean value of cell density each day, the X-axis is indicative of incubation time.

Series [5] addresses T2, CD34 molecules of K562 leukemia cells (Homo sapiens, UniProt P28906).
T2 construct: endogenous in cells; host or cells: K562
T2 sequence (P28906 32-385): T1 sequence (P28906 32-385)
Kind of series: Co-immunoprecipitation of CD34 binding polypeptide, fluorescence intensity by fluorospectrophotometer. Conditions: 2b; for binding of polypeptide to protein co-immunoprecipitated with CD34 antibodies (fluorescence intensity): K562 total protein, CD34 antibody co-immunoprecipitation, NanoDrop 3300, FIGS. 2a. Here is the method:
(1) extracting total protein: wash K562 cell once with pre-cooled PBS buffer solution, remove the PBS, add 500 μL non-denatured protein lysate containing protease inhibitor into the culture dish, collect cells into a 1.5 mL centrifuge tube, perform ultra sonication for 4 times, 4 seconds each time, leave them on the ice for 30 minutes, and centrifuge them at 8000 rpm at 4° C. for 20 minutes, transfer the supernatant into a new centrifuge tube to obtain total protein products;
(2) pretreatment of cellular total protein: add 50 μL confining liquid of normal goat serum into the cellular total protein products, and incubate them on the ice for 1 hour, then add 100 μL G-protein microsphere suspension (Calbiochem), incubate them at 4° C. for 20 minutes, centrifuge and remove the G-protein microsphere.
(3) Co- immunoprecipitation: add CD34 antibodies (AR) into the total protein pretreated in step (2), take it as experimental groups, set control groups, wherein equal amount of PBS antibody diluent is added, and incubate them at 4° C. for 8 hours;
(4) Binding of polypeptides and purification of G-protein antibodies: add polypeptides 17 and 19 into respective experimental groups and control group respectively, meanwhile add G-protein microsphere suspension, and incubate them at 4° C. for 4 hours;
(5) Washing and elution: centrifuge at 4° C. to remove the supernatant, use washing liquor to wash for three times, centrifuge and remove the supernatant, add 2× SDS buffer solution in a volume the same as that of G-protein microsphere, treat them at 50° C. for 10 minutes, centrifuge and remove the microspheres, transfer the supernatant into a new EP tube, and add DTT (dithiothreitol) until the final concentration is 100 mM;
(6) Testing fluorescence intensities of experimental groups and control groups using micro fluorospectro photometer (NanoDrop 3300).

In series [6] the test system is ductal epithelial cells and vascular endothelial cells of salivary gland. Kind of series: Immunofluorescence binding to salivary gland tissue sections. The conditions noted are these: 2 μg/mL polypeptide, 1 hour, room temperature, 6 μm frozen sections, FIG. 6a. Format: cell-based, human. As for the experimental part:
In the example, immunofluorescence is used to test the binding between polypeptide and ductal epithelial cells and vascular endothelial cells of salivary gland.
Embed the human salivary gland tissues with OCT, and slice them in a thickness of 6 μm at −20° C., fix with acetone for 15 minutes, use PBS to wash them for three times, 5 minutes each time. Incubate them with 2 μg/mL CD34 binding polypeptide (polypeptide 17) at room temperature for 1 hour, use PBS to wash for three times, 10 minutes each time. Drop 20 μL anti-fluorescence quenching agent for mounting, and preserve them being protected from light at 4° C., fluorescence microscope is used to observe and photograph.

Another series relates to MNNG/HOS cells. Kind of series: Binding between CD34 binding polypeptide and human osteosarcoma cell line MNNG/HOS. Format: cell-based. Conditions: 2 μg/ml, 37° C., 2 hours, CD34 negative cell line, fluorescence microscope. As for the experimental part:
Add 2 μg/ml polypeptides 17 and 19 into two culture dishes of well-grown MNNG/HOS cells (density of 80%) respectively, incubate them in an incubator at 37° C. for 2 hours, remove the culture solution, use 1 ml PBS to wash them for 3 times, add 5 ml culture solution, and use a fluorescence microscope to observe the binding between polypeptide and MNNG/HOS cells.

“polypeptide 17: synthetic CD34 binding polypeptide displayed by phage 17, amino acid sequence SEQ ID NO: 1 (SSFASKKGYPFNRMCAS; Non-antibody binding protein capable of binding to CD34)”: the “adhesion of K562 cells (count of adherent cells)” value in the series with K562 cells [1] is “inhibit the adhesion of K562 cells significantly”. Moreover, the “binding to CD34 molecules (overlap of polypeptide green fluorescence and CD34 antibody red fluorescence)” value in series [2] is “have bound to CD34 molecules”. Moreover, in series [3], the “binding to CD34 negative cells” value is reported as “won't bind to CD34 negative cells”. In addition, the “proliferation rate of K562 leukemia cells versus control group” value in the series with K562 cells [4] is listed as “no significant difference”. In addition, the “binding of polypeptide to protein co-immunoprecipitated with CD34 antibodies (fluorescence intensity)” value in series [5] is on record as “can specifically bind”. Also, the “binding to ductal epithelial cells and vascular endothelial cells of salivary gland tissue” value in series [6] was “bind to ductal epithelial cells and vascular endothelial cells of salivary gland tissue”. Also, in the series on MNNG/HOS cells, the “binding between fluorescent polypeptide and MNNG/HOS cells” value is given as “No binding”.

On to “polypeptide 19: synthetic CD34 binding polypeptide displayed by phage 19, amino acid sequence SEQ ID NO: 2 (SSLGWWGPRRDFPGRRERIYLGIPWLSLLGSGAPSPV; Non-antibody binding protein capable of binding CD34)”, for which the “adhesion of K562 cells (count of adherent cells)” value in the series on K562 cells [1] was “inhibit the adhesion of K562 cells significantly, especially the culture solution containing the polypeptide 19”. The “binding to CD34 molecules (overlap of polypeptide green fluorescence and CD34 antibody red fluorescence)” value in series [2] is “have bound to CD34 molecules”. In addition, the “binding to CD34 negative cells” value in series [3] is listed as “won't bind to CD34 negative cells”. Besides, in the series on K562 cells [4], the “proliferation rate of K562 leukemia cells versus control group” value was “no significant difference”. For the same substance, the “binding of polypeptide to protein co-immunoprecipitated with CD34 antibodies (fluorescence intensity)” value in series [5] is given as “can specifically bind”. The “binding specificity, comparison between polypeptides” value in series [5] (co-immunoprecipitation with CD34 antibodies, FIGS. 2a) is reported as “better binding specificity than the polypeptide 17”. Moreover, in the series with MNNG/HOS cells, the “binding between fluorescent polypeptide and MNNG/HOS cells” value is given as “No binding”.
